Results reported in the NIST ThermoML archive (doi:10.1016/j.tca.2017.09.002).

Assay: excess molar enthalpy (molar enthalpy of mixing); xn = mol fraction of the nth substance listed
Details: 1273 K, 105 kPa, Liquid, Calvet calorimetry

[Ni] [nickel] + [Bi]
Details | excess molar enthalpy [kcal/mol]
x1 = 0.0552 | -0.0846
x1 = 0.1056 | -0.165
x1 = 0.1516 | -0.227
x1 = 0.1935 | -0.272
x1 = 0.2321 | -0.301
x1 = 0.2677 | -0.321
x1 = 0.3011 | -0.329
x1 = 0.3319 | -0.325
